# Laboratory results: US10781229B2, “Tris- or neopentyl glycol-based amphiphiles and uses thereof” (Industry-University Cooperation Foundation Hanyang …, priority 2015, dated 2020)
# Entries after “also recorded” stand apart in the source; their conditions may differ.
# Molecular target: T1, uric acid-xanthine/H+ symporter (UapA) (Emericella nidulans, UniProt Q07307, G411V)
# T1 construct: GFP; made in house; host or cells: Saccharomyces cerevisiae FGY217
# Assay: UapA structural stability by CPM assay
# Set-up: species or system Aspergillus nidulans
# Conditions: 40° C.
# Method: Experiments to measure the structural stability of a uric acid-xanthine/H+ symporter (UapA) due to TDTs or NDTs in an aqueous solution were conducted. The structural stability of UapA was measured using CPM assay, and the concentrations of TDTs, NDTs, and DDM concentration were CMC+0.04% by weight.
# In particular, UapA protein is a uric acid-xanthine/H+ symporter in Aspergillus nidulans). The stability of the protein was measured using N-[4-(7-Diethylamino-4-methyl-3-coumarinyl)phenyl]maleimide (CPM), as a sulfhydryl-specific fluorophore, by means of a fluorescence spectrophotometer. A free sulfhydryl group of a cysteine residue is present within the center of the protein but may be present near a solvent due to unfolding of the protein. CPM becomes fluorescent by reaction with free thiol and, accordingly, functions as a sensor of unfolding. […] The reaction was monitored at 40° C. for 120 minutes by means of a microplate spectrofluorometer. So as to calculate a ratio of folded proteins relative to remaining proteins after being maintained at 40° C. for […], relative maximum fluorescence was used. […]
# T1 sequence (Q07307 12-574 G411V): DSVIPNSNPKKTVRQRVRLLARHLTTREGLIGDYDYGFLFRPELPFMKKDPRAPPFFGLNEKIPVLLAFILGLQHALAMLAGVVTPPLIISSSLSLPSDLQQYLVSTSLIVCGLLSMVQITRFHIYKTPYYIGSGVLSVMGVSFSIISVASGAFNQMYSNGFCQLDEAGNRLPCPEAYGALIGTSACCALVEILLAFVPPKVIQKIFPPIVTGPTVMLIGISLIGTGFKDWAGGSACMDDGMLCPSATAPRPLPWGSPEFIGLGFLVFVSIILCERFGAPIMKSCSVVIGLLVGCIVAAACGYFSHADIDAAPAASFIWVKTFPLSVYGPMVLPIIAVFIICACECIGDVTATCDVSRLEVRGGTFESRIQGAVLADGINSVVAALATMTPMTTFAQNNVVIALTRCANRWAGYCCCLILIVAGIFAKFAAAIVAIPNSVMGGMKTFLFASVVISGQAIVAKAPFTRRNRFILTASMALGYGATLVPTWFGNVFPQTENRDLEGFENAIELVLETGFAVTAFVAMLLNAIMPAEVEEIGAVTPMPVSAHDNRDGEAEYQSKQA
compound,measurement,setting,value
CCCCCCCCCCCC(CCCCCCCCCCC)COCC(CO[C@@H]1OC(CO)[C@@H](O)C(O)C1O)(CO[C@@H]1OC(CO)[C@@H](O)C(O)C1O)CO[C@@H]1OC(CO)[C@@H](O)C(O)C1O (some centres unmarked) [NDT-C11],UapA protein structural stability (amount of folded protein),CMC+0.04% by weight,most excellent
same,UapA protein structural stability (amount of folded protein),CMC+0.2% by weight,most excellent; also recorded: superior to those of MNG-3
